Test results from patent US12594292B2, “Antiviral prodrugs, intermediate-and long-acting formulations and methods” (priority 2022, dated 2026).
Like-named read-outs stand apart in the source and are kept apart here.

Tests used:
in vitro [1] = details: human
in vitro [2] = details: human; remark: listed apart in the source
Huh7.5 [3] = experiment: Antiviral evaluation of cyanobenzyl analogs, Huh7.5; format: cell-based
Calu 3 [4] = experiment: Antiviral evaluation of cyanobenzyl analogs, Calu 3; format: cell-based
Calu 3 [5] = experiment: Cytotoxicity of cyanobenzyl analogs, Calu 3
Huh7.5 [6] = experiment: Cytotoxicity of cyanobenzyl analogs, Huh7.5
in vitro [7] = details: human; remark: listed apart in the source
[8] = system: SARS-CoV-2 isolate USA-WA1/2020; experiment: SARS-CoV-2 infection in Caco-2 cells, qRT-PCR (Example 7); format: cell-based; details: Severe acute respiratory syndrome coronavirus 2; Caco-2 cells, MOI 0.01, 48 hours
in vitro [9] = details: human; remark: listed apart in the source
in vitro [10] = details: African green monkey
[11] = CellTiter-Glo luminescent cell viability assay, Vero E6 (Example 3); format: cell-based; details: African green monkey
Description: CellTiter-glo luminescent cell viability assay: Approximately 10^4 Vero E6 cells per well were seeded in opaque walled 96 well cell culture plates and incubated overnight. Compounds or controls were added at the indicated concentrations. […] Viability was calculated compared to untreated controls and CC50 values were calculated using Prism 8.
Determination of Cytotoxicity: The 50% cytotoxic concentrations (CC50) were determined with Cell Titer Glo (Cat. #G7570, Promega, Madison, WI) according to the manufacturer's instructions. The calculated CC50 values are shown in the foregoing table.
Relative viability was measured by CellTiter-Glo luminescent cell viability assay, as depicted at FIG. 2.

[12] = system: SARS-CoV-2 isolate USA-WA1/2020; experiment: SARS-CoV-2 infection in PSC-human lung cells, qRT-PCR (Example 7); format: cell-based; details: Severe acute respiratory syndrome coronavirus 2; PSC-human lung cells, MOI 0.01, 48 hours
in vitro [13] = details: human; remark: listed apart in the source
[14] = Seven day oral pharmacokinetics in Syrian hamsters; format: in vivo; details: after oral administration of ODBG-P-RVn
Description: ODBG-P-RVn in 0.1M sodium carbonate/bicarbonate buffer, pH 9.0, was administered to Syrian Hamsters by oral gavage every 12 hours for seven days. ODBG-P-RVn was present as the sodium salt.
FIG. 4A and FIG. 4B depict the seven day oral pharmacokinetics in Syrian hamsters. Syrian hamsters were given vehicle or ODBG-P-RVn by oral gavage every 12 hours for 7 days. Groups of 3 animals received vehicle or drug at doses of 16.9 and 13.2 mg/kg. Animals were weighed daily and monitored for clinical signs.
Analytical Methods: ODBG-P-RVn: Hamster plasma samples (10 μL) containing ODBG-P-RVn and K2EDTA as the anticoagulant were added to polypropylene tubes containing water (100 μL), internal standard solution (10 μL; 1,000 ng/mL of ODE-P-RVn in ACN:DMF (1:1, v/v)), and 10 μL of ACN:DMF (1:1, v/v). The solutions were mixed, then acidified with phosphoric acid, 85% w/v:water (1:19, v/v; 10 μL), mixed, then diluted with 200 μL of IPA, mixed, then diluted with 500 μL of water, and mixed. The samples were extracted with a Sep-Pak® tC18 96-well solid phase extraction plate (25 mg; Waters, Milford, MA). Extraction occurred under positive pressure conditions using nitrogen. Samples were washed serially with 1 mL of water:acetonitrile:formic acid (475:25:0.5, v/v/v) and 0.4 mL of water:acetonitrile:formic acid (350:150:0.5, v/v/v) before being serially eluted with 100 μL and 150 μL of water:{acetonitrile:isopropyl alcohol (1:1, v/v)}:formic acid:ammonium formate:citric acid solution, 2% w/v (15:85:0.1:0.1:0.1, v/v/v/w/v). The citric acid solution was prepared as water:citric acid monohydrate (20:0.4, v/w). After elution, 100 μL of water was added to each sample. The ODBG-P-RVn extracts were analyzed using an Agilent 1200 HPLC system (Agilent, Santa Clara, CA) coupled to an API5500 mass analyzer (SCIEX, Foster City, CA). Analytes were chromatographically separated using a Dacapo DX-C18 MF column (100×2 mm, 2.5 μm; ImtaktUSA, Portland, OR) using a mobile phase system consisting of Mobile Phase A (water:formic acid:[water:ammonium formate:citric acid (25:5:0.5, v/w/w)](1.000:1:1, v/v/v) and Mobile Phase B (acetonitrile:isopropyl alcohol:formic acid:[water:ammonium formate:citric acid (25:5:0.5, v/w/w)](800:200:1:1, v/v/v/v). The total analytical run time was 4.5 minutes. The mobile phase was nebulized using heated nitrogen in a Turbo-V source/interface set to electrospray positive ionization mode. The ionized compounds were detected using multiple reaction monitoring with transitions m/z 788.4>229 (V2043) and 668.4>467.2 (V2041). This method is applicable for measuring ODBG-P-RVn concentrations ranging from 6.25 to 3,000 ng/mL using 10.0 μL of plasma for extraction. The peak areas of ODBG-P-RVn and RVn were acquired using Analyst v. 1.6.2 (SCIEX, Framingham, MA). The calibration curve was obtained by fitting the peak area ratios of the analyte/I.S. and the standard concentrations to a linear equation with 1/x2 weighting, using Analyst. The equation of the calibration curve was then used to interpolate the concentrations of the analyte in the samples using their peak area ratios. The peak areas used for the calculations were not rounded.
The solutions were mixed and centrifuged at 16,000 g for five minutes. […] The GS-441524 extracts were analyzed using an Acquity UPLC system (Waters, Milford, MA) coupled to a G2-S QTof mass analyzer (Waters, Milford, MA). […]

in vitro [15] = details: human; remark: listed apart in the source

With CCCCCCCCCCCCCCCCCCOC[C@H](COP(=O)(O)OC[C@H]1O[C@@](C#N)(c2ccc3c(N)ncnn23)[C@@H](O)C1O)OCc1ccccc1C#N (some centres unmarked) [OD(2-CN-Bn)G-P-RVn, 1-O-Octadecyl-2-O-(2-cyanobenzyl)-sn-glyceryl-phospho-RVn] the CC50 (in vitro [1]) was over 100 µM, the CC50 (in vitro [2]) was 82.8 µM and the EC50 (Huh7.5 [3]) was 0.0102 ± 0.017 µM. It also gave an EC90 (Huh7.5 [3]) of 0.281 ± 0.03 µM, an SI (Huh7.5 [3]) of over 980 and an SI (Calu 3 [4]; Calu 3) of 909. The EC50 (Calu 3 [4]; Calu-3) was 0.091 ± 0.025 µM and the EC90 (Calu 3 [4]; Calu-3) was 0.186 ± 0.047 µM.
CCCCCCCCCCCCCCCCCCOC[C@H](COP(=O)(O)OC[C@H]1O[C@@](C#N)(c2ccc3c(N)ncnn23)[C@H](O)[C@@H]1O)OCc1cccc(C#N)c1 [OD(3-CN-Bn)G-P-RVn, 1-O-Octadecyl-2-O-(3-cyanobenzyl)-sn-glyceryl-phospho-RVn] showed an SI (Huh7.5 [3]) of 2066, an EC50 (Huh7.5 [3]; read-out: EC50) of 0.024 ± 0.006 µM and an EC90 (Huh7.5 [3]; read-out: EC90) of 0.077 ± 0.017 µM. For the same molecule, the CC50 (Calu 3 [5]) was 61.6 µM, the CC50 (Huh7.5 [6]) was 49.6 µM and the SI (Calu 3 [4]; Calu 3) was 1810. It also gave an EC50 (Calu 3 [4]; Calu 3, read-out: EC50) of 0.034 ± 0.007 µM and an EC90 (Calu 3 [4]; Calu 3, read-out: EC90) of 0.065 ± 0.036 µM.
In the case of N#C[C@@]1(c2ccc3c(N)ncnn23)O[C@H](CO)[C@@H](O)[C@H]1O [RVn, 2-C-(4-aminopyrrolo[2,1-f][1,2,4]triazin-7-yl)-2,5-anhydro-D-altrononitrile, reference compound], the CC50 at 48.5 h (in vitro [7]) is reported as over 100 µM, the EC90 [8] is reported as 1.75 µM and the CC50 at 48.5 h (in vitro [9]) is reported as over 100 µM. For the same molecule, the CC50 at 48.5 h (in vitro [10]) was over 100 µM, the CC50 at 48.5 h [11] was over 100 µM and the EC90 [12] was 2.62 µM. For the same molecule, the CC50 at 48.5 h (in vitro [13]) was over 100 µM, the “plasma levels of RVn versus EC90 for RVn in PSC lung cells and Vero E6 cells” value [14] was “less than the EC90” and the “time of peak plasma levels of RVn, the nucleoside metabolite of ODBG-P-RVn” value [14] was 3 h. It also gave a CC50 at 48.5 h (in vitro [15]) of over 100 µM.
